Results published in ChEMBL document CHEMBL2413040, “Ligand/kappa-opioid receptor interactions: insights from the X-ray crystal structure” (Eur J Med Chem, 2013).

Assay: Binding affinity to kappa opioid receptor in guinea pig cerebral cortex after 2.5 hrs
Assay type: tissue-based, Cavia porcellus

| SMILES | Ki |
| --- | --- |
| CCCC[C@H](N)C(=O)N[C@@H](Cc1ccc2ccccc2c1)C(=O)N[C@H](CCCC)C(=O)N[C@@H](CCCNC(=N)N)C(N)=O | 2.3 nM |
| CCCC[C@H](N)C(=O)N[C@@H](Cc1ccc2ccccc2c1)C(=O)N[C@@H](C(=O)N[C@@H](CC1CCCCC1)C(N)=O)[C@@H](C)CC | 56 nM |
| N=C(N)NCCC[C@H](NC(=O)[C@@H](Cc1c[nH]c2ccccc12)NC(=O)[C@H](Cc1ccccc1)NC(=O)[C@@H](N)Cc1ccccc1)C(N)=O | 1140 nM |
| CCCC[C@H](N)C(=O)N[C@@H](Cc1ccc2ccccc2c1)C(=O)N[C@H](CCCC)C(=O)N[C@@H](CC1CCCCC1)C(N)=O | 27 nM |
| CC[C@H](C)[C@@H](NC(=O)[C@H](Cc1ccc2ccccc2c1)NC(=O)[C@@H](N)Cc1ccccc1)C(=O)N[C@@H](CCCNC(=N)N)C(N)=O | 3.6 nM |
| CCCC[C@@H](NC(=O)[C@H](Cc1ccccc1)NC(=O)[C@@H](N)Cc1ccccc1)C(=O)N[C@@H](CCCNC(=N)N)C(N)=O | 1.2 nM |
| CCCC[C@H](N)C(=O)N[C@@H](Cc1ccc2ccccc2c1)C(=O)N[C@H](Cc1c[nH]c2ccccc12)C(=O)N[C@@H](CC1CCCCC1)C(N)=O | 10000 nM |
| CC[C@H](C)[C@@H](NC(=O)[C@H](Cc1ccccc1)NC(=O)[C@@H](N)Cc1ccccc1)C(=O)N[C@@H](CCCNC(=N)N)C(N)=O | 2.4 nM |
| CC[C@H](C)[C@@H](NC(=O)[C@H](Cc1ccccc1)NC(=O)[C@@H](N)Cc1ccccc1)C(=O)N[C@@H](CC1CCCCC1)C(N)=O | 64 nM |
| CCCC[C@H](N)C(=O)N[C@@H](Cc1ccc2ccccc2c1)C(=O)N[C@@H](C(=O)N[C@@H](CCCNC(=N)N)C(N)=O)[C@@H](C)CC | 1.5 nM |
| NC(=O)[C@H](CC1CCCCC1)NC(=O)[C@@H](Cc1c[nH]c2ccccc12)NC(=O)[C@H](Cc1ccccc1)NC(=O)[C@@H](N)Cc1ccccc1 | 10000 nM |
| CCCC[C@H](N)C(=O)N[C@@H](Cc1ccccc1)C(=O)N[C@H](CCCC)C(=O)N[C@@H](CC1CCCCC1)C(N)=O | 71 nM |
| CCCC[C@H](N)C(=O)N[C@@H](Cc1ccc2ccccc2c1)C(=O)N[C@H](Cc1c[nH]c2ccccc12)C(=O)N[C@@H](CCCNC(=N)N)C(N)=O | 1760 nM |
| CCCC[C@H](N)C(=O)N[C@@H](Cc1ccccc1)C(=O)N[C@H](Cc1c[nH]c2ccccc12)C(=O)N[C@@H](CCCNC(=N)N)C(N)=O | 4550 nM |
| CCCC[C@@H](NC(=O)[C@H](Cc1ccccc1)NC(=O)[C@@H](N)Cc1ccccc1)C(=O)N[C@@H](CC1CCCCC1)C(N)=O | 26 nM |
| N=C(N)NCCC[C@H](NC(=O)[C@@H](Cc1c[nH]c2ccccc12)NC(=O)[C@H](Cc1ccc2ccccc2c1)NC(=O)[C@@H](N)Cc1ccccc1)C(N)=O | 1150 nM |
| CC[C@H](C)[C@@H](NC(=O)[C@H](Cc1ccc2ccccc2c1)NC(=O)[C@@H](N)Cc1ccccc1)C(=O)N[C@@H](CC1CCCCC1)C(N)=O | 53 nM |
| CCCC[C@H](N)C(=O)N[C@@H](Cc1ccccc1)C(=O)N[C@H](Cc1c[nH]c2ccccc12)C(=O)N[C@@H](CC1CCCCC1)C(N)=O | 10000 nM |
| CCCC[C@@H](NC(=O)[C@H](Cc1ccc2ccccc2c1)NC(=O)[C@@H](N)Cc1ccccc1)C(=O)N[C@@H](CCCNC(=N)N)C(N)=O | 7.1 nM |
| CCCC[C@@H](NC(=O)[C@H](Cc1ccc2ccccc2c1)NC(=O)[C@@H](N)Cc1ccccc1)C(=O)N[C@@H](CC1CCCCC1)C(N)=O | 33 nM |
| NC(=O)[C@H](CC1CCCCC1)NC(=O)[C@@H](Cc1c[nH]c2ccccc12)NC(=O)[C@H](Cc1ccc2ccccc2c1)NC(=O)[C@@H](N)Cc1ccccc1 | 6000 nM |
| CCCC[C@H](N)C(=O)N[C@@H](Cc1ccccc1)C(=O)N[C@@H](C(=O)N[C@@H](CC1CCCCC1)C(N)=O)[C@@H](C)CC | 341 nM |
| CCCC[C@H](N)C(=O)N[C@@H](Cc1ccccc1)C(=O)N[C@H](CCCC)C(=O)N[C@@H](CCCNC(=N)N)C(N)=O | 4.2 nM |
| CCCC[C@H](N)C(=O)N[C@@H](Cc1ccccc1)C(=O)N[C@@H](C(=O)N[C@@H](CCCNC(=N)N)C(N)=O)[C@@H](C)CC | 9.3 nM |
